Assay results: patent US20030119797A1, “Methods for selective immunomodulation” (priority 2001, published 2003)
“Also recorded” adds a separate entry of the source. Where two headings read alike, the source gives them in different places.

Columns and labels:
[1] = system: allergic contact dermatitis (ACD); assay: Skin inflammation and lymph nodes during sensitization and elicitation phase of ACD; type: in vivo
[2] = system: gene expression in blood cells; details: days 13 or 14 vs baseline, 30 mg b.i.d. oral
Method: Pimecrolimus was evaluated as treatment for psoriasis using an oral dose of 60 mg (30 mg b.i.d) during a 4-week clinical study. The cohort included 10 patients; 8 received the treatment and 2 received a placebo. Blood samples were collected before the first administration to establish the gene expression baseline and on days 13 or 14 after treatment with pimecrolimus or placebo and submitted to gene expression analysis in order to gain insights into the mechanisms of action of the compound.
The RNA from blood samples drawn from each patient in the study was extracted and tested on individual DNA microarrays, thus allowing, for each patient, a comparison of gene expression before and after pimecrolimus treatment. […] Genes that were consistently modulated were sorted in functional categories.

[3] = system: antigen-induced pulmonary eosinophilia; assay: Rat model of asthma: antigen-induced pulmonary eosinophilia in actively sensitized Brown Norway Rats; type: in vivo; details: single and multiple challenge models
From the text: Another study looked at the effects of oral administration of pimecrolimus on antigen-induced pulmonary eosinophilia in actively sensitized Brown Norway Rats.

[4] = system: mixed-lymphocyte reaction; assay: mixed-lymphocyte reaction (MLR) assay; type: cell-based, mouse
From the text: In addition to the IL-2 reporter gene assay, the concentration of immunosuppressants, such as pimecrolimus and FK506 can be measured by the mixed-lymphocyte reaction (see Meo, “The MLR in the Mouse”, Immunological Methods, Lefkovits and Pernis, Eds., p. 227 Academic Press, NY).

[5] = system: allergen induced airway eosinophilia; assay: Mouse model of asthma: aeroallergen induced eosinophil influx into the lungs of sensitized mice; type: in vivo
[6] = in vivo, po
[7] = in vivo; details: rat, po, 25 mg/kg
Method: In another study designed to explore the differences between pimecrolimus and FK506 and to determine whether these differences might be associated with a different tissue distribution, the exposure to pimecrolimus and FK506 in various organs after oral administration were measured. Animals received 2 oral doses of 25 mg/kg in an interval of 2 hours. […] Pimecrolimus was found consistently to have a higher skin/blood concentration ratio than FK506 (2 hours: 7.3 vs. 2.8; 6 hours: 13 vs. […]; 24 hours: 36 vs. 6.0). The AUC0-24h in skin calculated for pimecrolimus was twice as high as with FK506.
These distribution characteristics are relevant not only for oral, but also for topical application, as the compound enters systemic circulation after permeation through the skin.

[8] = human, in vivo
Method: In this study pimecrolimus was rapidly absorbed with a median tmax across all the dose groups and collection days of between 0.8 and 2.0 hours. […] There was no effect of age or weight on the apparent clearance of pimecrolimus.

[9] = system: systemic immune responses; assay: Models of systemic immunosuppression (graft-versus-host reaction, antibody formation to sheep red blood cells, kidney transplantation); type: in vivo, rat
From the text: Pimecrolimus (also called ASM981 and ELIDEL®) is an ascomycin macrolactam-derivative with anti-inflammatory properties, chemical name is 33-epichloro-33-desoxy-ascomycin. Pimecrolimus is an ascomycin macrolactam-derivative developed originally for topical and oral treatment of inflammatory skin diseases such as atopic dermatitis and psoriasis. Pimecrolimus binds to macrophilin-12 and inhibits the Ca-dependent phosphatase calcineurin. As a consequence, it inhibits T cell activation and blocks the transcription and release of both Th1 and Th2 inflammatory cytokines. […] Tachyphylaxis has not been observed.

[10] = system: SCID mice reconstituted with CD4+CD45RBHi T cells (SCID-IBD); assay: SCID-IBD mouse model, treatment started the day after T cell transfer; type: in vivo
From the text: It is known that the transfer of syngeneic, naive T lymphocytes (CD4^+CD45RB^Hi) into SCID mice results in a severe colitis and wasting disease, SCID-IBD.
In this study, SCID mice reconstituted with CD4^+CD45RB^Hi T lymphocytes were used. These mice are known to develop chronic colitis with characteristics similar to human IBD, as described above.
[…] […] BW was monitored throughout. On termination, blood was withdrawn, spleen, mesenteric lymph nodes (MLN) and colon were removed. Serum haptoglobin levels were measured (ELISA), colitis was assessed histologically and lymphocyte and neutrophil numbers were calculated from FACS analysis of blood, spleen and MLN cell suspensions.
In order to determine the efficacy of ASM981 treatment in preventing intestinal mucosal damage in SCID-IBD mice, a histological examination of the colon sections was performed according to defined morphological parameters. All colon sections were assessed according to a scheme awarding degrees of severity governed by the extent of cell infiltration and inflammation with a score of 8 being the maximum.

[11] = system: psoriatic patients; details: human, in vivo
Method: A clinical study was initiated with an oral formulation of pimecrolimus to treat psoriatic patients. Pimecrolimus was evaluated as treatment for psoriasis using an oral dose of 60 mg (30 mg b.i.d) during a 4-week clinical study. The cohort included 10 patients; 8 received the treatment and 2 received a placebo.
The dose used in the study was 60 mg/day, given as 30 mg b.i.d. To make this dose the 20 mg tablets were cut in half using a special cutter (Tablettenteiler NR.96) so as to obtain 30 mg of pimecrolimus or a matched amount of placebo.
In this study the relationship of trough concentration to clinical results was also determined.

[12] = system: CYP3A enzyme subfamily; assay: Elimination / metabolism of pimecrolimus; type: in vitro ADME
[13] = system: promoter for human IL-2; assay: IL-2 reporter gene assay; type: cell-based; details: read-out: IC50 (concentration required for 50% inhibition)
From the text: The reporter gene is any gene expressing a readily observable product, e.g., an enzyme marker such as β-galactosidase or luciferase, or any other suitable enzyme marker. For example, where the enzyme marker is β-galactosidase, the reporter gene is, e.g., a bacterial lacZ gene; where the enzyme marker is luciferase, the gene is, e.g., a Phorinus luciferase gene. […] The promoter gene is a promoter gene for a cytokine or protein for which transcription is stimulated or suppressed by the drug to be monitored.
Blood samples from the patient are diluted, their effect on gene expression in the above described system is measured, and the assay is standardized using known concentrations of the immunosuppressive material.

[14] = system: allergic contact dermatitis (ACD); assay: Rat model of allergic contact dermatitis (ACD); type: in vivo; details: oral, same doses
[15] = system: SCID mice reconstituted with CD4+CD45RBHi T cells (SCID-IBD); assay: SCID-IBD mouse model, delayed treatment of established IBD; type: in vivo; details: 100 mg/kg/day p.o. started after 7, 14 or 21 days, until 41 days
Method: In order to determine if pimecrolimus is also effective once IBD is established, SCID mice were treated with pimecrolimus at a dose level of 100 mg/kg/day at days 7, 14 or 21 following the transfer of the disease causing CD4^+ T cells. The study was terminated after 41 days, i.e., the mice were treated for 33, 26 and 19 days, respectively. The results are shown in FIGS. 10-12, and described below.
SCID mice were reconstituted with 2×10^5 CD4^+CD45RB^Hi T cells and treatment with pimecrolimus (100 mg/kg/day p.o.) started after 7, 14 or 21 days and continued daily until 41 days. Treatment with the placebo formulation started after 7 days. BW was monitored once a week for the first 2 weeks and then twice weekly. Data are expressed as mean percent BW relative to the weight on day 0±s.e.m. for n=9 (PBS), n=8 (ASM(7d) & ASM(21d) and n=7 (ASM(14d) and placebo) mice per group. PBS refers to the non-transferred mice which have been pooled with regard to percent BW values since no treatment dependent changes were found. p<0.01 relative to the placebo-treated group at 41 days.
SCID mice were reconstituted with 2×10^5 CD4^+CD45RB^Hi T cells and treatment with pimecrolimus (100 mg/kg/day p.o.) started after 7,14 or 21 days and continued daily until 41 days. […] Data are expressed as mean haptoglobin (mg/mL)±s.e.m. for n=9 (PBS), n=8 (ASM(7d)) and n=7 (ASM(14d), ASM(21d) and placebo) mice per group. […]

[16] = system: IBD patients; details: cited from earlier work

**Q.** For “33-epichloro-33-desoxy-ascomycin [Pimecrolimus]”, which “primary site of action” value [1] is on record?
**A.** Its value is “primarily interferes with inflammation in the skin”.

**Q.** And the “expression of Kallistatin” value [2]?
**A.** The value was “up-regulated”.

**Q.** What about the “expression of asthma related genes (RANTES, GALECTIN-3, Thromboxane A2 receptor, Glutathione peroxidase)” value [2] of the same compound?
**A.** Its value is “specifically and significantly down-regulated”.

**Q.** What about the “expression of genes necessary for chemotaxis and cellular migration (LFA-1, P-selectin ligand, L-selectin)” value [2] of the same compound?
**A.** The value was “dramatic down-regulation”.

**Q.** What about the “expression of genes of the Macrolactam target pathway (macrophilin 12), cellular activation and proliferation (Histone2, Histone 3.3, cyclin D2)” value [2] of the same compound?
**A.** Its value is “down-regulate”.

**Q.** And the “expression of inflammatory mediators (Leukotriene A4 hydrolase, prostaglandin endoperoxide synthase)” value [2]?
**A.** The value was “strongly down regulate”.

**Q.** And the “allergen induced airway eosinophilia and IL-4 cytokine production” value [3]?
**A.** The value was “inhibit”.

**Q.** What about the IC50 [4] of the same compound?
**A.** Its IC50 is 9 nM.

**Q.** And the “allergen induced airway eosinophilia and IL-4 cytokine production” value ([5]; mouse, single and multiple challenge models)?
**A.** Its value is “inhibit”.

**Q.** And the “eosinophil count in the lung and eosinophil peroxidase activity” value ([5]; sensitized mice, oral administration)?
**A.** Its value is “able to reduce”.

**Q.** What about the drug accumulation [6] of the same compound?
**A.** Its drug accumulation is “does not lead to drug accumulation in the blood or tissues”.

**Q.** And the “AUC0-24h in skin relative to FK506” value [7]?
**A.** The value was “twice as high”.

**Q.** What about the “exposure in all other tissues, including blood, lymph nodes and kidney” value [7] of the same compound?
**A.** The value was “lower than to FK506”.

**Q.** What about the time to steady-state [8] of the same compound?
**A.** Its time to steady-state is 6 to 13 days.

**Q.** What about the “dose dependence of Cmax and AUCτ” value ([8]; po) of the same compound?
**A.** The value was “dose proportional”.

**Q.** And the “effect of age or weight on the apparent clearance” value ([8]; po)?
**A.** The value was “no effect”.

**Q.** And the “trough concentration associated with a significant clinical response in the target epithelial tissue” value ([8]; po)?
**A.** Its value is no less than 7 ng/mL.

**Q.** And the “AUCτ,b Mean ± SD” value ([8]; po, 10 mg)?
**A.** Its value is 102.8 ± 41 .4 ng · h/mL.

**Q.** What about the “Cmax,b Mean ± SD” value ([8]; po, 20 mg) of the same compound?
**A.** The value was 42 4 ± 10.8 ng/mL.

**Q.** And the “therapeutic window of anti-inflammatory activity in the skin versus systemic immunosuppression as compared to FK506” value ([9]; rats, q.d., s.c.)?
**A.** The value was “clearly increased therapeutic window”.

**Q.** And the “systemic immunosuppressive effects compared to CyA or FK506” value ([9]; transplantation and vaccination models)?
**A.** The value was “only a low potential to impair systemic immune responses; also recorded: minimal general systemic immunosuppressive effects”.

**Q.** What about the “colitis, histological examination of colon sections” value (“colitis, histological examination” for short) ([10]; 30 mg/kg/day p.o.) of the same compound?
**A.** The value was “moderate to severe inflammation”.

**Q.** What about the “colitis, histological examination” value ([10]; 60 mg/kg/day p.o.) of the same compound?
**A.** Its value is “moderate”.

**Q.** And the “inhibition of lymphocyte numbers in blood, spleen and MLN” value ([10]; 100 mg/kg/day)?
**A.** The value was “not observed”.

**Q.** What about the “mice with macroscopically normal feces” value ([10]; 100 mg/kg/day group) of the same compound?
**A.** Its value is “Approximately half of the mice”.

**Q.** What about the “colitis, histological examination” value ([10]; 100 mg/kg/day p.o.) of the same compound?
**A.** Its value is “only mildly inflamed colons”.

**Q.** And the “neutrophil infiltration into the colon (myeloperoxidase activity in colon homogenates)” value ([10]; 100 mg/kg/day p.o.)?
**A.** Its value is “completely blocked”.

**Q.** What about the “loss of BW associated with the disease” value ([10]; oral, 4 weeks, dose range 30-100 mg/kg/day, dose-responsive) of the same compound?
**A.** Its value is “prevented the severe loss of BW”.

**Q.** What about the diarrhea ([10]; p.o., 30-100 mg/kg/day) of the same compound?
**A.** The diarrhea was “improved in a dose-dependent fashion”.

**Q.** And the “severe colitis relative to placebo-treated SCID-IBD mice” value ([10]; p.o., 30-100 mg/kg/day)?
**A.** Its value is “significantly inhibited”.

**Q.** What about the “change in physical examination, blood pressure, electrocardiogram, safety laboratory tests or renal function” value [11] of the same compound?
**A.** Its value is “no clinically significant change was observed”.

**Q.** What about the “serious adverse side effects” value [11] of the same compound?
**A.** The value was “no serious adverse side effects in any patient”.

**Q.** And the route of elimination [12]?
**A.** The route of elimination was “predominantly via metabolism involving an oxidative mechanism catalyzed by the CYP3A enzyme subfamily”.

**Q.** What about the IC50 [13] of the same compound?
**A.** Its IC50 is 1.5 nM.

**Q.** What about the “efficacy compared to FK506” value [14] of the same compound?
**A.** Its value is “superior”.

**Q.** What about the “blood and spleen neutrophilia associated with established/ongoing colitis” value [15] of the same compound?
**A.** The value was “strongly inhibits”.

**Q.** And the “loss of BW associated with established/ongoing mild to severe colitis” value [15]?
**A.** Its value is “highly-effective in reversing the loss of BW”.

**Q.** Which “patients who get pancreatitis or more severe allergic reactions” value ([16]; human, in vivo) does the source give for Cn1cnc([N+](=O)[O-])c1Sc1ncnc2nc[nH]c12 [AZA, Azathioprine, reference compound] here?
**A.** The value was 3-15%.

**Q.** Which results are given for C=CC[C@@H]1/C=C(\C)C[C@H](C)C[C@H](OC)[C@H]2O[C@@](O)(C(=O)C(=O)N3CCCC[C@H]3C(=O)O[C@H](/C(C)=C/[C@@H]3CC[C@@H](O)[C@H](OC)C3)[C@H](C)[C@@H](O)CC1=O)[C@H](C)C[C@@H]2OC [FK506, tacrolimus, reference compound]?
**A.** primary site of action [1]: acts primarily on the subcutaneous lymphoid tissue; IC50 ([4]; Mus musculus): 1 nM; Kp at 2 h [7]: 2.8; Kp at 24 h [7]: 6; skin/blood concentration ratio ([7]; 6 h): 1.6

**Q.** With O=C(O)c1cc(/N=N/c2ccc(S(=O)(=O)Nc3ccccn3)cc2)ccc1O [Sulphasalazine, reference compound] as the compound, how does the “healthy control subjects reporting side effects related to the sulphapyridine moiety” value ([16]; healthy control subjects) read?
**A.** The value was no more than 80%.

**Q.** And the “patients reporting side effects related to the sulphapyridine moiety” value ([16]; patients)?
**A.** Its value is “up to 45%”.

**Q.** Which “BW at the doses needed to inhibit colitis” value ([10]; 3 and 10 mg/kg/day p.o.) does the source give for C[C@@H]1C[C@H]2[C@@H]3CCC4=CC(=O)C=C[C@]4(C)[C@@]3(F)[C@@H](O)C[C@]2(C)[C@@]1(O)C(=O)CO [dexamethasone, Dexamethasone, reference compound] here?
**A.** The value was “steroid-related accelerated loss in BW”.

**Q.** For “Infliximab: chimeric anti-TNF alpha antibody”, which “patients in whom remission is achieved” value ([16]; CD patients, infusion) is on record?
**A.** Its value is “up to 60%”.

**Q.** What about the “patients who develop side effects” value ([16]; e.g., nausea, upper respiratory tract infections, abdominal pain and headache) of the same compound?
**A.** The value was “up to 60%”.

**Q.** What about the “patient population which develops human anti-chimeric antibodies” value ([16]; human, in vivo) of the same compound?
**A.** Its value is 13-30%.

**Q.** What about the “patients who suffered serious infusion reactions” value ([16]; human, in vivo) of the same compound?
**A.** Its value is “Sixteen percent”.
